Experimental data: PMC7774954, “Interactomic affinity profiling by holdup assay: Acetylation and distal residues impact the PDZome-binding specificity of PTEN phosphatase” (PLoS ONE, 2020)
*1 amine or outer side, *2 acyl side, *3 side chain or, on linkers, in order; H or OH if unused. Where a SMILES comes first, the peptide text is derived from it. The star is where a group is joined. X1 = O=C(CCCC[C@@H]1SC[C@@H]2NC(=O)N[C@@H]21)NCCCOCCOCCOCCCN*; Suc = O=C(CCC(=O)[*:2])[*:1]

Legend:
CNKSR1-1 = biological target: T1, CNKSR1-1 (Homo sapiens, UniProt Q969H4); assay: Holdup assay, CNKSR1-1; type: binding
T1 sequence (Q969H4 1-720): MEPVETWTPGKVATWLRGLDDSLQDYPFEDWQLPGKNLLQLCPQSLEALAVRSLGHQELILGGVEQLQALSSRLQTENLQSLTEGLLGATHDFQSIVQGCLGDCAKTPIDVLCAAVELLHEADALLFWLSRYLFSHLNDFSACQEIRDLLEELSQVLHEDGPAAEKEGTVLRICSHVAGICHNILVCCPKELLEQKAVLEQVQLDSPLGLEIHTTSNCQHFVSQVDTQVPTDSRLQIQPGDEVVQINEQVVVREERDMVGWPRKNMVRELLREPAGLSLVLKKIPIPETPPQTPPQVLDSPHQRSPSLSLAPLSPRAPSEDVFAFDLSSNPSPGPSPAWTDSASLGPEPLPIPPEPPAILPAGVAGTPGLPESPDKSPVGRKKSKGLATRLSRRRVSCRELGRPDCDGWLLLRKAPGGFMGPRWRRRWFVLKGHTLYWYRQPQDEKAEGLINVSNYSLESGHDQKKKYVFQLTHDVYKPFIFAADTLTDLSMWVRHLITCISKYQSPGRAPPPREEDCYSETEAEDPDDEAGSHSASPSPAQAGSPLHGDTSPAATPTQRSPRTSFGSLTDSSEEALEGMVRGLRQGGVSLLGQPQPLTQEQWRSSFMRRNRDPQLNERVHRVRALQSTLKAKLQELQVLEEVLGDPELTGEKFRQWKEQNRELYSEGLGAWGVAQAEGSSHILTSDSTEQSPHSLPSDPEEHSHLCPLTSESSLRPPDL

APBA1-1 = assay: Holdup assay, APBA1-1; type: binding, human
APBA2-1 = assay: Holdup assay, APBA2-1; type: binding, human
MAGI3-5 = biological target: T2, MAGI3-5 (Homo sapiens, UniProt Q5TCQ9); assay: Holdup assay, MAGI3-5; type: binding
T2 sequence (Q5TCQ9 1-1481): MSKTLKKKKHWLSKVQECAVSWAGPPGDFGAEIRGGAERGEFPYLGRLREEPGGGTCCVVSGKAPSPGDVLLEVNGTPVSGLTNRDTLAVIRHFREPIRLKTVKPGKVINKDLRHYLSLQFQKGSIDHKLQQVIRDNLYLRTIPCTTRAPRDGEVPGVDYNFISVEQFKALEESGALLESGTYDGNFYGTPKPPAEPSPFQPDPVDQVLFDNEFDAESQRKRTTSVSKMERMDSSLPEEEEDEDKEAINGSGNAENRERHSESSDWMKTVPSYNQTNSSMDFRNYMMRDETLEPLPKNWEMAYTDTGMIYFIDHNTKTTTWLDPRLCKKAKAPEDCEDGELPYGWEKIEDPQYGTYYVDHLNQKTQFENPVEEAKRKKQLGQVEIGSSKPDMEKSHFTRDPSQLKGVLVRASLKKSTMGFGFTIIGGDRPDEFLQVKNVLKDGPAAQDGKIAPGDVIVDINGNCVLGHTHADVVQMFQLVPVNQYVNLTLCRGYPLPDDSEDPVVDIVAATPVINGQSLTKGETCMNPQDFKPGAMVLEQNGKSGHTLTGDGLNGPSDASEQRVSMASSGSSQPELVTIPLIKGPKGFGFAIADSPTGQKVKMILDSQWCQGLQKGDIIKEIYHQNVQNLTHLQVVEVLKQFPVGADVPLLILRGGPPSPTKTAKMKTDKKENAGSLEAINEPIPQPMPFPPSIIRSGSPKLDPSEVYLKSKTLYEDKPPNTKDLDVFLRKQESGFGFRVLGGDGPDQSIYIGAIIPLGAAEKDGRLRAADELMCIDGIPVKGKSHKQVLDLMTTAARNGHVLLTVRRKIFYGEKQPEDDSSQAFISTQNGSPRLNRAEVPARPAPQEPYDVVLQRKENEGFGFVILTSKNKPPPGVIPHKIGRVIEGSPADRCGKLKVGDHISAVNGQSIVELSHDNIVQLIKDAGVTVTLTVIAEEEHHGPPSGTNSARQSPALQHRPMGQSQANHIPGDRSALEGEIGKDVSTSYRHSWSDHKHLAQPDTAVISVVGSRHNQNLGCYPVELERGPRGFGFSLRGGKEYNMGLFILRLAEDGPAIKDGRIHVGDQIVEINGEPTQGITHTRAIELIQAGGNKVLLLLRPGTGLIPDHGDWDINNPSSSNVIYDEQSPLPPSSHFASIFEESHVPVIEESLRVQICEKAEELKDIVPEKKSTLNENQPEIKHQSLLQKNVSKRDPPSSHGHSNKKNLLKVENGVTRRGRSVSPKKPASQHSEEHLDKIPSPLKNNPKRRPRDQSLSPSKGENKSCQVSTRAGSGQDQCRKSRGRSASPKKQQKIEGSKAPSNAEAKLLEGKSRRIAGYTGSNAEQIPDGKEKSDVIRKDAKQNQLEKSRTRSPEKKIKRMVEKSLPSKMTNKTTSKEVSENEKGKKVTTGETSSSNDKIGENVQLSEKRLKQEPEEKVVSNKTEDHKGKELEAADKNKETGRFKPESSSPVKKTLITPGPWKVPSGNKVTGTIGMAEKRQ

GRIP2-6 = assay: Holdup assay, GRIP2-6; type: binding, human
MPDZ-10 = MPDZ-10 (Homo sapiens, UniProt O75970); assay: Holdup assay, MPDZ-10; type: binding
Sequence of MPDZ-10 (O75970 whole entry): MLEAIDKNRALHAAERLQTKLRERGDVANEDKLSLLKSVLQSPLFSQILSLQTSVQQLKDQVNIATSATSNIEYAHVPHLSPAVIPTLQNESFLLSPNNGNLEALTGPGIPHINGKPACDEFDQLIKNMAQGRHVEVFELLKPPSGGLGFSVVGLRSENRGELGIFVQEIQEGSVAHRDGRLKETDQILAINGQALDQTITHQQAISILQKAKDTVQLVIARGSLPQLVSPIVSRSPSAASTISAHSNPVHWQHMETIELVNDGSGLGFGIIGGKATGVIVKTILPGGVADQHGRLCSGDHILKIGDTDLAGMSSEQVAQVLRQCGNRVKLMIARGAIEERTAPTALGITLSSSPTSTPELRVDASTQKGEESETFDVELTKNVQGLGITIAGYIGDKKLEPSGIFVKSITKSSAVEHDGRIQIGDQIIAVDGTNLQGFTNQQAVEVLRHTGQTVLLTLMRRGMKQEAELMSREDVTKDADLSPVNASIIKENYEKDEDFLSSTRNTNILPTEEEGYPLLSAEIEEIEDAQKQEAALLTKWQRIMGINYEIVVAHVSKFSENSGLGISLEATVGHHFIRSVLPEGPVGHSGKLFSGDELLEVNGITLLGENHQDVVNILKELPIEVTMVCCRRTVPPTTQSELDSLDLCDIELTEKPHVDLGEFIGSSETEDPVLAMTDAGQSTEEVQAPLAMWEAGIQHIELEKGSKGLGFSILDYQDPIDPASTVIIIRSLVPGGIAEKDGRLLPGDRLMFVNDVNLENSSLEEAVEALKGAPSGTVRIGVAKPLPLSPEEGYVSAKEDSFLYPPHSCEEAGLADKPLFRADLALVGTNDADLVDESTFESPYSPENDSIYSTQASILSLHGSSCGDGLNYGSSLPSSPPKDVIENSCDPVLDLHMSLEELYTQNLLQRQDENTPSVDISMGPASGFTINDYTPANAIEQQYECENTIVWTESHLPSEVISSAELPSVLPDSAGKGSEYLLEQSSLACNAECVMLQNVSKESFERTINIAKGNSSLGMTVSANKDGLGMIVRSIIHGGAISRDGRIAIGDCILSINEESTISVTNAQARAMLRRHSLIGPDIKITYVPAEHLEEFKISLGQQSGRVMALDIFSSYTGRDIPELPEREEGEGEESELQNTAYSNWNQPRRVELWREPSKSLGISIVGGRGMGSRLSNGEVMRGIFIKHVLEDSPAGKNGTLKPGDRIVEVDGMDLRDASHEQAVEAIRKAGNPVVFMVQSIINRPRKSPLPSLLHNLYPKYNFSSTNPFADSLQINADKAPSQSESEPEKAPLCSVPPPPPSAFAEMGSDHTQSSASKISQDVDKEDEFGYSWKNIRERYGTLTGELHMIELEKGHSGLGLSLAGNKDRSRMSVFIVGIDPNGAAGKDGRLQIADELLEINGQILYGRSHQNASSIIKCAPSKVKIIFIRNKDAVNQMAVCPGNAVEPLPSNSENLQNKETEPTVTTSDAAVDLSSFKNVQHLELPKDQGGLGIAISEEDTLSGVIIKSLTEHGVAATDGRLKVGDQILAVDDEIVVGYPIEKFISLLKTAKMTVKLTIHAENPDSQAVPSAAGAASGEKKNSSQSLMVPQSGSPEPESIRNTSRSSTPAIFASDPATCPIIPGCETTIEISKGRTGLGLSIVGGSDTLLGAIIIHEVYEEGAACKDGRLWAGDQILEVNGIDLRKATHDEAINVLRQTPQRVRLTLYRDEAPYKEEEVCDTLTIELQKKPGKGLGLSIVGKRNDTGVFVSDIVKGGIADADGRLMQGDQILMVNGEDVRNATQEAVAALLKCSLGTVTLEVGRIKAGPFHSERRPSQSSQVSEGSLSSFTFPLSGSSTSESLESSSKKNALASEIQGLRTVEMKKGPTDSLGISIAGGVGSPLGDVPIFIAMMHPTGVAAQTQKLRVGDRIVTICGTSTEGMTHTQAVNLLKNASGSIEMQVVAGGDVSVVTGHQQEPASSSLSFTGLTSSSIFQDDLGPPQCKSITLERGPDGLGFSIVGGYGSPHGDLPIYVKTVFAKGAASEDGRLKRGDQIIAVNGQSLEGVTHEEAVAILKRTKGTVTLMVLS

DEPTOR-1 = assay: Holdup assay, DEPTOR-1; type: binding, human

Structure (SMILES) | BI (CNKSR1-1) | BI (APBA1-1) | LogKD (APBA1-1) | BI (APBA2-1) | LogKD (APBA2-1) | BI (MAGI3-5) | Kd (MAGI3-5) | BI (GRIP2-6) | LogKD (GRIP2-6) | BI (MPDZ-10) | Kd (MPDZ-10) | BI (DEPTOR-1) | LogKD (DEPTOR-1) | LogKD (MAGI3-5) | LogKD (CNKSR1-1)
CC[C@H](C)[C@H](NC(=O)[C@H](CCC(N)=O)NC(=O)[C@@H](NC(=O)[C@H](Cc1c[nH]cn1)NC(=O)[C@H](CCC(N)=O)NC(=O)[C@H](CC(=O)O)NC(=O)[C@H](CCC(=O)O)NC(=O)[C@H](CC(=O)O)NC(=O)CCC(=O)NCCCOCCOCCOCCCNC(=O)CCCC[C@@H]1SC[C@@H]2NC(=O)N[C@@H]21)[C@@H](C)O)C(=O)N[C@H](C(=O)N[C@@H](CCCCNC(C)=O)C(=O)N[C@H](C(=O)O)C(C)C)[C@@H](C)O [PTEN_Ac] | 0.116 | -0.002 | 3.605 | -0.029 | 3.605 | 0.21 | 102 µM | -0.084 | 3.605 | 0.391 | 41.2 µM | -0.046 | 3.605 |  | 
CC[C@H](C)[C@H](NC(=O)[C@H](CCC(N)=O)NC(=O)[C@@H](NC(=O)[C@H](Cc1c[nH]cn1)NC(=O)[C@H](CCC(N)=O)NC(=O)[C@H](CC(=O)O)NC(=O)[C@H](CCC(=O)O)NC(=O)[C@H](CC(=O)O)NC(=O)CCC(=O)NCCCOCCOCCOCCCNC(=O)CCCC[C@@H]1SC[C@@H]2NC(=O)N[C@@H]21)[C@@H](C)O)C(=O)N[C@H](C(=O)N[C@@H](CCCCN)C(=O)N[C@H](C(=O)O)C(C)C)[C@@H](C)O [PTEN_11] |  |  |  |  |  | 0.097 |  |  |  |  |  |  |  | 3.519 | 
CC[C@H](C)[C@H](NC(=O)[C@H](CCC(N)=O)NC(=O)[C@@H](NC(=O)[C@H](Cc1c[nH]cn1)NC(=O)[C@H](CCC(N)=O)NC(=O)[C@H](CC(=O)O)NC(=O)[C@H](CCC(=O)O)NC(=O)[C@H](CC(=O)O)NC(=O)[C@H](Cc1ccccc1)NC(=O)[C@@H]1CCCN1C(=O)CCC(=O)NCCCOCCOCCOCCCNC(=O)CCCC[C@@H]1SC[C@@H]2NC(=O)N[C@@H]21)[C@@H](C)O)C(=O)N[C@H](C(=O)N[C@@H](CCCCN)C(=O)N[C@H](C(=O)O)C(C)C)[C@@H](C)O [PTEN_13] ({X1-Suc}-PFDEDQHTQITKV-OH) | -0.076 | -0.05 |  | 0.029 |  | […] |  | -0.013 |  | 0.493 | 15.5 µM | -0.005 |  | […] | […]
CC[C@H](C)[C@H](NC(=O)[C@H](CCC(N)=O)NC(=O)[C@@H](NC(=O)[C@H](Cc1c[nH]cn1)NC(=O)[C@H](CCC(N)=O)NC(=O)[C@H](CC(=O)O)NC(=O)[C@H](CCC(=O)O)NC(=O)[C@H](CC(=O)O)NC(=O)CCC(=O)NCCCOCCOCCOCCCNC(=O)CCCC[C@@H]1SC[C@@H]2NC(=O)N[C@@H]21)[C@@H](C)O)C(=O)N[C@H](C(=O)N[C@@H](CCCNC(=N)N)C(=O)N[C@H](C(=O)O)C(C)C)[C@@H](C)O [PTEN_KR] ({X1-Suc}-DEDQHTQITRV-OH) |  |  |  |  |  | 0.165 |  |  |  |  |  |  |  |  | 
